Reference: ChEMBL document CHEMBL1201862, “PubChem BioAssay data set” (2004)
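Assay format: 96-well plates, 48-hour exposure. GI50 marks 50% less growth.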 Activity calls are given as the source filed them. No stated cut-off is given here; in the data, active = GI50 up to about 1.1 µM and inactive = higher.

How the values were obtained:
Assay in all cases: NCI anticancer screen, dose series, 48 h
[1] = system: SK-MEL-2
[2] = system: T47D
[3] = system: K562
[4] = system: UACC-257
[5] = system: NCI/ADR-RES
[6] = system: SK-MEL-5
[7] = system: SNB-19
[8] = system: UACC-62
[9] = system: OVCAR-3
[10] = system: OVCAR-4
[11] = system: M14
[12] = system: UO-31
[13] = system: A498
[14] = system: HOP-62
[15] = system: HCC 2998
[16] = system: Hs-578T
[17] = system: PC-3
[18] = system: SF-539
[19] = system: MDA-MB-231

Measured: GI50

CCOC(=O)C(C(=O)OCC)=C1NC2(c3ccccc3Nc3ccc(C)cc32)C(C#N)S1 (stereo unspecified)
inactive: [1] 8.07 µM | [2] 4.39 µM | [3] 4.9 µM | [4] 11.3 µM | [5] 5.2 µM | [6] 7.73 µM | [7] 6.58 µM | [8] 9.48 µM | [9] 3.39 µM | [10] 5.66 µM | [11] 3.92 µM | [12] 6.28 µM | [13] 10.3 µM | [14] 11.4 µM | [15] 3.57 µM | [16] 14.2 µM | [17] 3.56 µM | [18] 3.72 µM

FC(F)(F)c1ccc(/N=C/C=C(/Nc2ccc(C(F)(F)F)cc2)c2ccc(Cl)cc2)cc1
inactive: [1] 8.34 µM | [2] 10.3 µM | [3] 18.4 µM | [4] 16.4 µM | [5] 13.7 µM | [6] 6.56 µM | [19] 14.5 µM | [7] 8.61 µM | [8] 1.82 µM | [9] 6.78 µM | [10] 14 µM | [11] 12.8 µM | [12] 14.5 µM | [14] 18.2 µM | [16] 13 µM | [17] 18 µM | [18] 14.2 µM

Cc1ccc(CC[PH](=O)CCc2ccc(C)nc2)cn1
inactive: [2] > 100 µM | [3] > 100 µM | [4] > 100 µM | [5] > 100 µM | [6] > 100 µM | [19] > 100 µM | [7] > 100 µM | [8] > 100 µM | [9] > 100 µM | [10] > 100 µM | [11] > 100 µM | [14] > 100 µM | [15] > 100 µM | [16] > 100 µM | [17] > 100 µM | [18] > 100 µM

Cc1ccc(/N=C2\SC(=S)N(CCC[N+](C)(C)C)\C2=N/c2ccc(C)cc2)cc1
inactive: [1] 11 µM | [2] 2.29 µM | [3] 7.13 µM | [4] 12 µM | [6] 10.9 µM | [19] 14.3 µM | [7] 8.24 µM | [8] 10 µM | [11] 21.1 µM | [12] 18.5 µM | [13] 17.2 µM | [14] 23.7 µM | [15] 15.9 µM | [16] 4.08 µM | [17] 13.7 µM

CC1=NN(c2nc(N)nc(NS(=O)(=O)c3cc(C)c(Cl)cc3S)n2)C(C)(C)C1
inactive: [1] > 10 µM | [2] > 10 µM | [3] > 10 µM | [4] > 10 µM | [5] > 10 µM | [6] > 10 µM | [7] > 10 µM | [9] > 10 µM | [10] > 10 µM | [11] > 10 µM | [12] > 10 µM | [13] > 10 µM | [14] > 10 µM | [15] > 10 µM | [16] > 10 µM | [17] > 10 µM | [18] > 10 µM

O=C1CCCC2(c3ccccc3)Nc3ccccc3N12 (stereo unspecified)
inactive: [1] > 100 µM | [2] > 100 µM | [3] 82.6 µM | [4] > 100 µM | [5] > 100 µM | [6] > 100 µM | [19] > 100 µM | [7] > 100 µM | [8] 98.6 µM | [9] > 100 µM | [10] > 100 µM | [11] > 100 µM | [12] > 100 µM | [14] > 100 µM | [15] > 100 µM | [16] > 100 µM | [17] > 100 µM | [18] > 100 µM
